The values below come from patent US8217051B2, “Spiroindolinone derivatives” (Hoffmann-La Roche Inc., priority 2009, dated 2012).

The structures appear in SMILES notation.

The target of this test is interaction between p53 and MDM2 proteins (Homo sapiens, UniProt Q00987). Kind of test: HTRF assay of inhibition of p53-MDM2 interaction (GST-MDM2 / biotinylated p53 peptide). It is filed as binding. Particulars: 0.02% BSA. The method, then: The ability of the compounds to inhibit the interaction between p53 and MDM2 proteins was measured by an HTRF (homogeneous time-resolved fluorescence) assay in which recombinant GST-tagged MDM2 binds to a peptide that resembles the MDM2-interacting region of p53 (Lane et al.). Binding of GST-MDM2 protein and p53-peptide (biotinylated on its N-terminal end) is registered by the FRET (fluorescence resonance energy transfer) between Europium (Eu)-labeled anti-GST antibody and streptavidin-conjugated Allophycocyanin (APC).
Chain of interaction between p53 and MDM2 proteins (Q00987 whole entry): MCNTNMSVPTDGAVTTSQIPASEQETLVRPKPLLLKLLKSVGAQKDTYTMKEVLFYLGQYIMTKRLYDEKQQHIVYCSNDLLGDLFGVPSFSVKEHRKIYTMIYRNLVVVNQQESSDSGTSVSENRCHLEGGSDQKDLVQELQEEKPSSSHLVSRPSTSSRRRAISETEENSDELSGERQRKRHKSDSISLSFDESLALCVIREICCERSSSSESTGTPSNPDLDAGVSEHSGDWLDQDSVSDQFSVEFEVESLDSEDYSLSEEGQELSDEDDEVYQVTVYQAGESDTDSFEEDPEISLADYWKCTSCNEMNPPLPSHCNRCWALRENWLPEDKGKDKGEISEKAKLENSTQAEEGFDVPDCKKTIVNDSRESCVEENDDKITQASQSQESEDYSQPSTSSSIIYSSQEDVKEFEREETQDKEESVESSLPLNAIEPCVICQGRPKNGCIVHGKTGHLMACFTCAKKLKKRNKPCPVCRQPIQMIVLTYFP
Test is performed in black flat-bottom 384-well plates (Costar) in a total volume of […] containing:90 nM biotinylate peptide, 160 ng/ml GST-MDM2, 20 nM streptavidin-APC (PerkinElmerWallac), 2 nM Eu-labeled anti-GST-antibody (PerkinElmerWallac), 0.2% bovine serum albumin (BSA), 1 mM dithiothreitol (DTT) and 20 mM […] (TBS) buffer as follows: Add 10 uL of GST-MDM2 (640 ng/ml working solution) in reaction buffer to each well. Add 10 uL diluted compounds (1:5 dilution in reaction buffer) to each well, mix by shaking. Add 20 uL biotinylated p53 peptide (180 nM working solution) in reaction buffer to each well and mix on shaker. Incubate at 37° C. for 1 h. Add 20 uL streptavidin-APC and Eu-anti-GST antibody mixture (6 nM Eu-anti-GST and 60 nM streptavidin-APC working solution) in TBS buffer with 0.2% BSA, shake at room temperature for 30 minutes and read using a TRF-capable plate reader at 665 and 615 nm (Victor 5, Perkin ElmerWallac). If not specified, the reagents were purchased from Sigma Chemical Co.
Background: TR-FRET usually uses a lanthanide donor and a delayed reading to cut background.
A word on the IC50: it is the concentration needed to halve the response being measured. In the case of `O=C1C=C(c2cccc(F)c2)[C@]2(C(=O)Nc3cc(Cl)ccc32)[C@@H](c2cc(Cl)ccc2OC2CCOCC2)N1` (racemic) [Example 16, racemic(2′R,3R)-6-chloro-2′-[5-chloro-2-(tetrahydro-pyran-4-yloxy)-phenyl]-4′-(3-fluoro-phenyl)-1′,3′-dihydrospiro[3H-indole-3,3′-pyridine]-2,6′(1H)-dione], the IC50 was determined as 482 nM. For `O=C1C=C(c2cccc(Cl)c2)[C@]2(C(=O)Nc3cc(Cl)ccc32)[C@@H](c2cc(Cl)ccc2OC2CCOCC2)N1` (racemic) [Example 12, racemic(2′R,3R)-6-chloro-4′-(3-chloro-phenyl)-2′-[5-chloro-2-(tetrahydro-pyran-4-yloxy)-phenyl]-1′,3′-dihydrospiro[3H-indole-3,3′-pyridine]-2,6′(1H)-dione], the IC50 turned out to be 273 nM. As to `Cc1ccc(F)cc1[C@H]1NC(=O)C=C(c2cccnc2)[C@]12C(=O)Nc1cc(Cl)ccc12` (racemic) [Example 40, racemic(2′R,3R)-6-chloro-2′-(5-fluoro-2-methyl-phenyl)-4′-(pyridin-3-yl)-1′,3′-dihydrospiro[3H-indole-3,3′(2′H)-pyridine]-2,6′(1H)-dione], the midpoint of inhibition, the IC50, lay at 6420 nM. Compound `Cc1ccc(F)cc1[C@H]1NC(=O)C=C(c2ccoc2)[C@]12C(=O)Nc1cc(Cl)ccc12` (racemic) [Example 32, racemic(2′R,3R)-6-chloro-2′-(5-fluoro-2-methyl-phenyl)-4′-(furan-3-yl)-1′,3′-dihydrospiro[3H-indole-3,3′(2′H)-pyridine]-2,6′(1H)-dione] had an IC50 of 5300 nM. Compound `Cc1ccc(F)cc1[C@H]1NC(=O)C=C(c2cccc(Cl)c2)[C@]12C(=O)Nc1cc(Cl)ccc12` [Example 6, chiral(2′R,3R)-6-chloro-4′-(3-chloro-phenyl)-2′-(5-fluoro-2-methyl-phenyl)-1′,3′-dihydrospiro[3H-indole-3,3′(2′H)-pyridine]-2,6′(1H)-dione] came in with an IC50 of 66 nM.
